Test results taken from ChEMBL document CHEMBL1143643, “Synthesis and evaluation of antiplatelet activity of trihydroxychalcone derivatives” (Bioorg Med Chem Lett, 2005).

Experiments:
Oryctolagus cuniculus [1] = organism: Oryctolagus cuniculus; experiment: In vitro inhibitory effects on collagen induced rabbit platelet aggregation upon incubation at 37 degree C for 4 minutes; assay type: functional
Oryctolagus cuniculus [2] = organism: Oryctolagus cuniculus; experiment: In vitro inhibitory effects on arachidonic acid induced rabbit platelet aggregation upon incubation at 37 degree C for 4 minutes; assay type: functional

SMILES	IC50 (Oryctolagus cuniculus [1]) [µM]	IC50 (Oryctolagus cuniculus [2]) [µM]
COc1cc(/C=C/C(=O)c2c(O)cc(O)cc2O)ccc1OCc1ccccc1	37.4	28.5
CN(C)c1ccc(/C=C/C(=O)c2c(O)cc(O)cc2O)cc1	> 100	> 100
